Laboratory results: patent US7125903B1 (Aventis Pharmaceuticals Inc., priority 1999, dated 2006)
Counter-ions that a name gives are not always drawn.

Biological target: T1, human D4 receptor (D4.2 sub-type) (Homo sapiens, UniProt P21917, DEL265-296)
T1 construct: expressed in transfected cells
T1 sequence (P21917 with tags, fused parts or gaps DEL265-296): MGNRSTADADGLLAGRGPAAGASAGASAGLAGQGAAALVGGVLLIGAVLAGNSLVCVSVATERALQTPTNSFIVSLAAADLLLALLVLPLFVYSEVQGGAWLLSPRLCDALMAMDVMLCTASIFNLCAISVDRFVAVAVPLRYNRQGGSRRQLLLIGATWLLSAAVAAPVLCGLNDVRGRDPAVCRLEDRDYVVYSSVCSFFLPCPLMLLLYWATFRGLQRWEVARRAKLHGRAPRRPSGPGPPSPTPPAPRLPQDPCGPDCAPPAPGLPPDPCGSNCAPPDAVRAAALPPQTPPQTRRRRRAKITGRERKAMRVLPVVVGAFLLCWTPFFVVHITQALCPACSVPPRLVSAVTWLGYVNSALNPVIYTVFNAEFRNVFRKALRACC
Experiment: D4 receptor binding assay (3H-spiperone displacement)
Settings: for inhibition at 1 µM: 1 μM test compound, inhibition of 3H-spiperone binding, read-out: D4 RBA % Inhib. @ 1 μM; for Ki: 3H-spiperone 0.25 nM, membranes of HEK 298 cells with human D4.2, Cheng-Prusoff from IC50, read-out: D4 RBA Ki
Procedure: D4 receptor-binding affinities of the compounds were evaluated according to their ability to reduce binding of ^3H-spiperone as compared to the reference compound clozapine. The potency of the test compound to reduce ^3H-spiperone binding directly correlated to its binding affinity for the receptor.
[…] (human embryonic kidney) cells stably transfected with human D4 receptor (D4.2 sub-type) were grown in NUNC cell factories for 5 days (75% confluency) without a media change and removed with versene (approximately 19 mg of cells per cell factory tray). The cells were then centrifuged in a Sorval centrifuge for 10 min, 5000 rpm (GS3 rotor) and the pellets quickly frozen in liquid nitrogen and stored at −80° C. until used in binding assay. When used in the assay, cells were thawed on ice for 20 min and then 10 mL of incubation buffer (50 mM Tris, 1 mM EDTA, 4 mM MgCl2, 5 mM KCl, 1.5 mM CaCl2, 120 mM NaCl, pH 7.4) was added. The cells were then vortexed to resuspend pellet and homogenized with a Kinematica, CH-6010 Kriens-LU, homogenizer for 15 seconds at setting 7. Concentration of receptor protein was determined using the Pierce BCA assay.
The incubation was started by the addition of 100 μl (50 μg protein) membrane homogenate to a solution of 300 μl incubation buffer and 100 μl (0.25 nM final conc.) ^3H-spiperone (90 Ci/mmol, Amersham, diluted in borosilicate glass vial) in 96-well polypropylene plates (1 mL per well). The plates were vortexed and incubated at room temperature for 90 minutes. The binding reaction was stopped by filtering using a Packard Harvester. The samples were filtered under vacuum over glass fibre filter plates (Whatman GF/B) presoaked for 2 hours in 0.3% polyethylenimine (PEI) in 50 mM Tris buffer (pH 7.4). The filters were then washed 6 times with 7 mL ice cold 50 mM Tris buffer (pH 7.4). The filter plates were dried overnight and 35 μl of Microscint-O (Packard) was added. The plates were sealed and counted in the Packard Top Count (3 minutes per well).
The incubation was started by the addition of 100 μl (50 μg protein) membrane homogenate to a solution of 200 μl incubation buffer, 100 μl ^3H-spiperone (90 Ci/mmol, Amersham, diluted in borosilicate glass vial to 0.25 nM final conc.) and 100 μl (30 μM final conc.) of fresh dopamine (Research Biochemicals Inc., light protected and dissolved in incubation buffer) in 96-well polypropylene plates (1 mL per well). The plates were vortexed and incubated at room temperature for 90 minutes at which time the binding reaction was stopped by filtering. The filters were washed and counted using the same procedure as in the total binding assay described above to give the nonspecific binding value (NSB).
The incubation was started by the addition, in 96-well polypropylene plates (1 mL per well), of 100 μl (50 μg protein) membrane homogenate to a solution of 200 μl incubation buffer, 100 μl (0.25 nM final conc.) ^3H-spiperone (90 Ci/mmol, Amersham, diluted in borosilicate glass vial) and 100 μl of test compound that was prepared from 1 mM stock dissolved in DMSO and stored at −20° C. in polypropylene cryogenic storage vials until dilution in incubation buffer in 96-well polypropylene plates. The plates were vortexed and incubated at room temperature for 90 minutes at which time the binding reaction was stopped by filtering. The filters were washed and counted using the same procedure as in the total binding assay described above to give the displacement binding value (BD).
The test compounds were initially assayed at 1 and 0.1 μM and then at a range of concentrations chosen such that the middle dose would cause about 50% inhibition of ^3H-spiperone binding. Specific binding in the absence of test compound (B0) was the difference of total binding (BT) minus non-specific binding (NSB) and similarly specific binding (in the presence of test compound) (B) was the difference of displacement binding (BD) minus non-specific binding (NSB). […]

| Structure (SMILES) | inhibition at 1 µM | Ki |
| --- | --- | --- |
| O[C@H](CNCc1ccsc1)COc1ccc(-c2noc3ccsc23)cc1 [Example 41] | 62% | – |
| CN(Cc1ccccc1)C[C@@H](O)COc1cccc(-c2noc3ccsc23)c1 [Compound 2] | – | 106 nM |
| O[C@H](CNC1Cc2ccccc2C1)COc1cccc(-c2noc3ccsc23)c1 [Compound 91 (base), (2R)-1-(indan-2-ylamino)-3-(3-thieno[2,3-d]isoxazol-3-yl-phenoxy)-propan-2-ol] | – | 13 nM |
| OC(COc1cccc(-c2noc3ccsc23)c1)CN1CCc2ccccc2C1 (racemic) [Compound 1, (±)-1-(3,4-dihydro-1H-isoquinolin-2-yl)-3-[3-(thieno[2,3-d]isoxazol-3-yl)phenoxy]-2-propanol hydrochloride] | 58% | – |
| O[C@@H](COc1cccc(-c2noc3ccsc23)c1)CN1CCN(Cc2ccc3c(c2)OCO3)CC1 [Example 35] | 57% | – |
| O[C@@H](COc1cccc(-c2noc3ccsc23)c1)CN1C2CCC1CC(c1noc3ccccc13)C2 (stereo partly drawn) [Example 75] | – | 57 nM |
| O[C@H](CNCc1cccc2ccccc12)COc1cccc(-c2noc3ccsc23)c1 [Example 10] | – | 103 nM |
| O[C@@H](COc1cccc(-c2noc3ccsc23)c1)CN1CCN(c2ccccc2C(F)(F)F)CC1 [Example 36] | – | 84 nM |
| O[C@H](CNCc1ccco1)COc1ccc(-c2noc3ccsc23)cc1 [Example 42] | 44% | – |
| C[C@@](O)(CNCc1cccc2ccccc12)COc1cccc(-c2noc3ccsc23)c1 [Example 21] | – | 55 nM |
| COc1ccccc1N1CCN(C[C@@H](O)COc2cccc(-c3noc4ccsc34)c2)CC1 [Compound 8] | – | 1.7 nM |
| C[C@@](O)(CNCc1cccs1)COc1cccc(-c2noc3ccsc23)c1 [Compound 5 (maleate), (2R)-2-methyl-1-(3-thieno[2,3-d]isoxazol-3-yl-phenoxy)-3-[thienophen-2-ylmethyl)-amino-propan-2-ol maleate] | – | 59.2 nM |
| C[C@@](O)(CNCc1ccco1)COc1cccc(-c2noc3ccsc23)c1 [Example 17] | – | 45 nM |
| CO[C@H](CNCc1ccccc1)COc1cccc(-c2noc3ccsc23)c1 [Example 39] | – | 26 nM |
| O[C@@H](COc1cccc(-c2noc3ccsc23)c1)CN1CCN(c2ccc(Cl)cc2)CC1 [Compound 7, (2R)-1-[4-(4-chlorophenyl)piperazin-1-yl]-3-(3-thieno[2,3-d]isoxazol-3-yl-phenoxy)propan-2-ol hydrochloride] | – | 29.6 nM |

Second part, the molecule after the results:

| inhibition at 1 µM | Ki | Structure (SMILES) |
| --- | --- | --- |
| – | 16 nM | O[C@H](CNC1CCc2ccccc21)COc1cccc(-c2noc3ccsc23)c1 (stereo partly drawn) [Example 93] |
| 96% | – | C[C@](O)(CNCc1cccc2ccccc12)COc1cccc(-c2noc3ccsc23)c1 [Example 57] |
| – | 171 nM | O[C@H](CNCc1cccs1)COc1ccc(-c2noc3ccsc23)cc1 [Example 43] |
| 72% | – | C[C@@H](NC[C@](C)(O)COc1cccc(-c2noc3ccsc23)c1)c1ccccc1 [Example 55] |
| – | 29 nM | C[C@@](O)(COc1cccc(-c2noc3ccsc23)c1)CN1CCN(c2ccccc2C#N)CC1 [Example 68] |
| – | 90 nM | CN(Cc1ccccc1)C[C@](C)(O)COc1cccc(-c2noc3ccsc23)c1 [Example 66] |
| 91% | – | Cn1nc(-c2cccc(OC[C@H](O)CN3CCC(n4c(=O)[nH]c5ccccc54)CC3)c2)c2sccc21 [Example 103] |
| 97% | – | Cn1nc(-c2cccc(OC[C@H](O)CN3CCC(C(=O)c4ccc(F)cc4)CC3)c2)c2sccc21 [Example 102] |
| 90% | – | Cn1nc(-c2cccc(OC[C@H](O)CN3CCN(c4ccccc4)CC3)c2)c2sccc21 [Example 100] |
| 93% | – | C[C@H](NC[C@](C)(O)COc1cccc(-c2noc3ccsc23)c1)c1ccccc1 [Example 56] |
| 85% | – | O[C@@H](COc1cccc(-c2noc3ccsc23)c1)CN1CCCCC1 [Example 98] |
| 95% | – | Cn1nc(-c2cccc(OC[C@H](O)CN3CCc4ccccc4C3)c2)c2sccc21 [Example 99] |
